Laboratory results reported in patent publication US6649763B1, “Optically active quinoline carboxylic acid derivatives with 7-pyrrolidine substituents causing optical activity and a process for the preparation thereof” (Dong Wha Pharm. Ind. Co., Ltd., priority 1999, dated 2003).

Tests used:
[1] = test system: Staphylococcus aureus 121E; experiment: Antibacterial activity in vitro (MIC, agar dilution); assay type: cell-based; conditions: resistant strain Staphylococcus aureus 121E
Method: (§1) The optically active quinoline carboxylic acid derivatives of the present invention were tested as to whether they could be useful as antibacterial compounds. In this regard, the compounds were measured for minimum inhibitory concentration (MIC: unit μg/ml) according to an agar dilution process (Hoechst 345) in which Muller-Hinton agars were diluted two fold. For comparison, ciprofloxacin and sparfloxacin were used as controls. Corresponding enantiomers and racemates of the compounds of interest were also used as comparative ones. Bacteria were inoculated at an amount of about 10^7 cfu/ml onto each agar. 18 hours after the inoculation at 37° C., the growth of the bacteria was observed. As to methicillin-resistant strains, their growth was observed 48 hours after the inoculation at […]. Hoechst standard strains were used as the test bacteria.

[2] = test system: Staphylococcus aureus 179; experiment: as above; assay type: cell-based; conditions: resistant strain Staphylococcus aureus 179
Method: as §1

[3] = test system: Staphylococcus aureus 208E; experiment: as above; assay type: cell-based; conditions: resistant strain Staphylococcus aureus 208E
Method: as §1

[4] = test system: Staphylococcus aureus 241; experiment: as above; assay type: cell-based; conditions: resistant strain Staphylococcus aureus 241
Method: as §1

[5] = test system: Staphylococcus aureus 256E; experiment: as above; assay type: cell-based; conditions: resistant strain Staphylococcus aureus 256E
Method: as §1

[6] = test system: Staphylococcus aureus 293; experiment: as above; assay type: cell-based; conditions: resistant strain Staphylococcus aureus 293
Method: as §1

[7] = test system: Staphylococcus aureus 303; experiment: as above; assay type: cell-based; conditions: resistant strain Staphylococcus aureus 303
Method: as §1

[8] = test system: Staphylococcus aureus 690E; experiment: as above; assay type: cell-based; conditions: resistant strain Staphylococcus aureus 690E
Method: as §1

[9] = test system: Staphylococcus aureus 692E; experiment: as above; assay type: cell-based; conditions: resistant strain Staphylococcus aureus 692E
Method: as §1

[10] = test system: Staphylococcus aureus 693E; experiment: as above; assay type: cell-based; conditions: resistant strain Staphylococcus aureus 693E
Method: as §1

[11] = test system: Staphylococcus aureus 88E; experiment: as above; assay type: cell-based; conditions: resistant strain Staphylococcus aureus 88E
Method: as §1

[12] = test system: Staphylococcus epidermidis 319; experiment: as above; assay type: cell-based; conditions: resistant strain Staphylococcus epidermidis 319
Method: as §1

[13] = test system: Staphylococcus epidermidis 329; experiment: as above; assay type: cell-based; conditions: resistant strain Staphylococcus epidermidis 329
Method: as §1

[14] = Phototoxicity test; assay type: in vivo; conditions: CD-1 female mice, oral 50 mg/kg; for Thickness of mice's ears after UV exposure, After 24 hr / Thickness of mice's ears after UV exposure, After 48 hr: UVA light source; for Thickness of mice's ears after UV exposure, After 24 hr / Thickness of mice's ears after UV exposure, After 48 hr / Thickness of mice's ears, Before UV exposure: 50 mg/kg; for edema and erythema observed after UV exposure / increase in ear thickness compared with before the UV exposure: after 48 hours of the UV exposure; for Thickness of mice's ears, Before UV exposure: baseline before UVA
Method: It is known that the presence of a halogen atom at the 8-position of the quinolone nuclei causes phototoxicity.
After 16 hours of starvation, CD-1 female mice were orally administered with a dose of 50 mg/kg of the compounds and allowed to be exposed for 4.5 hours to a UVA light source. The mice were located 15 cm away from the light source. Whether the mice were damaged in their ears was adopted as a main factor for the phototoxicity and determined after 24 hour and 48 hour UV exposure. The edema which the mice suffered were examined by measuring the thickness changes of their ears with the aid of electronic calipers and calculating average values. Also, an observation was made as to whether the mice suffered from erythema.

[15] = listed as enantiomer of the compound of Example 14, 50 mg/kg
[16] = listed as Racemic mixture of Example 14 compound
[17] = listed as racemate of the compound of Example 14, 50 mg/kg

CO/N=C1\CN(c2c(F)c(N)c3c(=O)c(C(=O)O)cn(C4CC4)c3c2F)CC1(C)CN.Cl (single isomer, unassigned) [Enantiomer of Example 14 Compound]
minimum inhibitory concentration (MIC) [1]: 0.013 µg/mL | minimum inhibitory concentration (MIC) [2]: 0.195 µg/mL | minimum inhibitory concentration (MIC) [3]: 0.013 µg/mL | minimum inhibitory concentration (MIC) [4]: 0.195 µg/mL | minimum inhibitory concentration (MIC) [5]: 0.013 µg/mL | minimum inhibitory concentration (MIC) [6]: 0.195 µg/mL | minimum inhibitory concentration (MIC) [7]: 0.195 µg/mL | minimum inhibitory concentration (MIC) [8]: 0.004 µg/mL | minimum inhibitory concentration (MIC) [9]: 0.004 µg/mL | minimum inhibitory concentration (MIC) [10]: 0.004 µg/mL | minimum inhibitory concentration (MIC) [11]: 0.007 µg/mL | minimum inhibitory concentration (MIC) [12]: 0.781 µg/mL | minimum inhibitory concentration (MIC) [13]: 1.563 µg/mL | Thickness of mice's ears after UV exposure, After 24 hr [14]: 36.3 ± 3.01 | Thickness of mice's ears after UV exposure, After 48 hr [14]: 44.5 ± 4.0 | edema and erythema observed after UV exposure [14, 15]: serious edema and erythema | increase in ear thickness compared with before the UV exposure [14, 15]: 150% | Thickness of mice's ears, Before UV exposure [14]: 17.8 ± 0.89

CO/N=C1\CN(c2cc3c(cc2F)c(=O)c(C(=O)O)cn3C2CC2)CC1(C)CN.Cl (single isomer, unassigned) [Enantiomer of Example 19 Compound]
minimum inhibitory concentration (MIC) [1]: 0.098 µg/mL | minimum inhibitory concentration (MIC) [2]: 3.125 µg/mL | minimum inhibitory concentration (MIC) [3]: 0.098 µg/mL | minimum inhibitory concentration (MIC) [4]: 3.125 µg/mL | minimum inhibitory concentration (MIC) [5]: 0.098 µg/mL | minimum inhibitory concentration (MIC) [6]: 3.125 µg/mL | minimum inhibitory concentration (MIC) [7]: 3.125 µg/mL | minimum inhibitory concentration (MIC) [8]: 0.049 µg/mL | minimum inhibitory concentration (MIC) [9]: 0.049 µg/mL | minimum inhibitory concentration (MIC) [10]: 0.098 µg/mL | minimum inhibitory concentration (MIC) [11]: 0.098 µg/mL | minimum inhibitory concentration (MIC) [12]: 12.500 µg/mL | minimum inhibitory concentration (MIC) [13]: 12.500 µg/mL

CO/N=C1\CN(c2nc3c(cc2F)c(=O)c(C(=O)O)cn3C2CC2)CC1(C)CN.Cl (racemic) [Racemate of Example 9 Compound]
minimum inhibitory concentration (MIC) [1]: 0.007 µg/mL | minimum inhibitory concentration (MIC) [2]: 0.195 µg/mL | minimum inhibitory concentration (MIC) [3]: 0.007 µg/mL | minimum inhibitory concentration (MIC) [4]: 0.195 µg/mL | minimum inhibitory concentration (MIC) [5]: 0.007 µg/mL | minimum inhibitory concentration (MIC) [6]: 0.195 µg/mL | minimum inhibitory concentration (MIC) [7]: 0.195 µg/mL | minimum inhibitory concentration (MIC) [8]: 0.004 µg/mL | minimum inhibitory concentration (MIC) [9]: <0.002 µg/mL | minimum inhibitory concentration (MIC) [10]: 0.007 µg/mL | minimum inhibitory concentration (MIC) [11]: 0.007 µg/mL | minimum inhibitory concentration (MIC) [12]: 0.391 µg/mL | minimum inhibitory concentration (MIC) [13]: 0.781 µg/mL

CO/N=C1\CN(c2cc3c(cc2F)c(=O)c(C(=O)O)cn3C2CC2)CC1(C)CN.Cl (racemic) [Racemate of Example 19 Compound]
minimum inhibitory concentration (MIC) [1]: 0.013 µg/mL | minimum inhibitory concentration (MIC) [2]: 0.391 µg/mL | minimum inhibitory concentration (MIC) [3]: 0.013 µg/mL | minimum inhibitory concentration (MIC) [4]: 0.391 µg/mL | minimum inhibitory concentration (MIC) [5]: 0.013 µg/mL | minimum inhibitory concentration (MIC) [6]: 0.391 µg/mL | minimum inhibitory concentration (MIC) [7]: 0.391 µg/mL | minimum inhibitory concentration (MIC) [8]: 0.007 µg/mL | minimum inhibitory concentration (MIC) [9]: 0.013 µg/mL | minimum inhibitory concentration (MIC) [10]: 0.013 µg/mL | minimum inhibitory concentration (MIC) [11]: 0.013 µg/mL | minimum inhibitory concentration (MIC) [12]: 0.781 µg/mL | minimum inhibitory concentration (MIC) [13]: 0.781 µg/mL

CO/N=C1\CN(c2c(F)c(N)c3c(=O)c(C(=O)O)cn(C4CC4)c3c2F)CC1(C)CN.Cl (racemic) [Racemate of Example 14 Compound]
minimum inhibitory concentration (MIC) [1]: <0.002 µg/mL | minimum inhibitory concentration (MIC) [2]: 0.025 µg/mL | minimum inhibitory concentration (MIC) [3]: <0.002 µg/mL | minimum inhibitory concentration (MIC) [4]: 0.025 µg/mL | minimum inhibitory concentration (MIC) [5]: <0.002 µg/mL | minimum inhibitory concentration (MIC) [6]: 0.025 µg/mL | minimum inhibitory concentration (MIC) [7]: 0.025 µg/mL | minimum inhibitory concentration (MIC) [8]: <0.002 µg/mL | minimum inhibitory concentration (MIC) [9]: <0.002 µg/mL | minimum inhibitory concentration (MIC) [10]: <0.002 µg/mL | minimum inhibitory concentration (MIC) [11]: <0.002 µg/mL | minimum inhibitory concentration (MIC) [12]: 0.049 µg/mL | minimum inhibitory concentration (MIC) [13]: 0.098 µg/mL | Thickness of mice's ears after UV exposure, After 24 hr [14, 16]: 23.5 ± 1.31 | Thickness of mice's ears after UV exposure, After 48 hr [14, 16]: 24.4 ± 2.33 | edema and erythema observed after UV exposure [14, 17]: moderate edema and erythema | increase in ear thickness compared with before the UV exposure [14, 17]: 39% | Thickness of mice's ears, Before UV exposure [14, 16]: 17.6 ± 0.52

CO/N=C1\CN(c2nc3c(cc2F)c(=O)c(C(=O)O)cn3C2CC2)CC1(C)CN.Cl (single isomer, unassigned) [Enantiomer of Example 9 Compound]
minimum inhibitory concentration (MIC) [1]: 0.049 µg/mL | minimum inhibitory concentration (MIC) [2]: 1.563 µg/mL | minimum inhibitory concentration (MIC) [3]: 0.049 µg/mL | minimum inhibitory concentration (MIC) [4]: 1.563 µg/mL | minimum inhibitory concentration (MIC) [5]: 0.025 µg/mL | minimum inhibitory concentration (MIC) [6]: 1.563 µg/mL | minimum inhibitory concentration (MIC) [7]: 0.781 µg/mL | minimum inhibitory concentration (MIC) [8]: 0.025 µg/mL | minimum inhibitory concentration (MIC) [9]: 0.025 µg/mL | minimum inhibitory concentration (MIC) [10]: 0.025 µg/mL | minimum inhibitory concentration (MIC) [11]: 0.025 µg/mL | minimum inhibitory concentration (MIC) [12]: 6.250 µg/mL | minimum inhibitory concentration (MIC) [13]: 12.500 µg/mL
